What was measured:
[1] = target: T1, Steroid 17-alpha-hydroxylase/17,20 lyase (Homo sapiens, UniProt P05093)
T1 sequence (P05093 whole entry): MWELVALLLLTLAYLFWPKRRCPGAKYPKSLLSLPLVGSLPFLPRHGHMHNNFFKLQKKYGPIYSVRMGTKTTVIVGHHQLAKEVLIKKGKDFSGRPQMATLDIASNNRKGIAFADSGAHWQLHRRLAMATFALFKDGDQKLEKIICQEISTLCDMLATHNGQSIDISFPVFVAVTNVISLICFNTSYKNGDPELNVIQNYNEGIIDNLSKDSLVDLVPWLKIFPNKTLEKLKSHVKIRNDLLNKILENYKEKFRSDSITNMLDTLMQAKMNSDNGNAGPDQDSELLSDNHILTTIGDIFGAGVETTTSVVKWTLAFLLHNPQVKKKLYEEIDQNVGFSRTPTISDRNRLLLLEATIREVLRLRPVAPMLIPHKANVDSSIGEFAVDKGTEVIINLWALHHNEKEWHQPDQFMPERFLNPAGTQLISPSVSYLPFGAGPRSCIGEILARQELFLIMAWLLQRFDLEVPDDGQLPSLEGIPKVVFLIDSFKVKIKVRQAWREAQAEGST

[2] = target: T1, Steroid 17-alpha-hydroxylase/17,20 lyase; remark: listed apart in the source
[3] = organism: Homo sapiens
[4] = target: T2, Aromatase (Homo sapiens, UniProt P11511)
T2 sequence (P11511 whole entry): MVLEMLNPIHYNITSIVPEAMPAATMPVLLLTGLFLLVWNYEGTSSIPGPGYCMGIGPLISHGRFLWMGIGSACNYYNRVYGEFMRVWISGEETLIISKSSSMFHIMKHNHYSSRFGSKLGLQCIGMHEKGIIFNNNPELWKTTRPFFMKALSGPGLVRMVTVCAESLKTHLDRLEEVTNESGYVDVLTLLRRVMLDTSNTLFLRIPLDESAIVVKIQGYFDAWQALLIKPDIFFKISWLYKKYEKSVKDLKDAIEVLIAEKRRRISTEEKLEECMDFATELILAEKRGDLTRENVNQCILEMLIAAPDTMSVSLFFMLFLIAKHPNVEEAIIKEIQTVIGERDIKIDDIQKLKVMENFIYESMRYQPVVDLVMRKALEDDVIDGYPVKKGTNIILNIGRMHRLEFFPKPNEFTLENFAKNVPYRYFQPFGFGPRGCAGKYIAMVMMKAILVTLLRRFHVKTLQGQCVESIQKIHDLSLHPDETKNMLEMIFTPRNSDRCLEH

IC50 [1]	inhibition at 2.5 µM [2]	Km [3]	inhibition at 25 µM [4]	SMILES
42 nM	98%			O=c1c2ccccc2oc2c(Br)ccc(Cn3ccnc3)c12
130 nM	94%			O=c1c2ccccc2oc2c([N+](=O)[O-])ccc(Cn3ccnc3)c12
	33%			O=c1c2ccccc2oc2cc(Cn3ccnc3)ccc12
	4%	0.0651 µM		O=c1c2ccccc2oc2c(Cn3ccnc3)ccc([N+](=O)[O-])c12
	3%			N#Cc1ccc(Cn2ccnc2)c2occc(=O)c12
	5%			O=c1ccoc2cc(Cn3cnnc3)ccc12
	9%			O=c1ccoc2cc(Cn3ccnc3)ccc12
	38%			O=c1c2ccccc2oc2c(Cn3ccnc3)ccc(Br)c12
	44%			COc1ccc2c(=O)c(Cn3ccnc3)c(-c3ccccc3)oc2c1
	26%			O=c1ccoc2c(Cn3ccnc3)ccc(Br)c12
220 nM	92%			N#Cc1ccc(Cn2ccnc2)c2c(=O)c3ccccc3oc12
	14%			N#Cc1ccc(Cn2ccnc2)c2oc3ccccc3c(=O)c12
	14%		21%	COc1ccc2c(=O)c(Cn3cnnc3)c(-c3ccccc3)oc2c1
	5%			O=c1ccoc2c(Cn3ccnc3)ccc([N+](=O)[O-])c12
	8%		27%	O=c1c2ccccc2oc2cc(Cn3cnnc3)ccc12

From ChEMBL document CHEMBL1134355 (J Med Chem, 2001)
